# Reference: patent US20250032631A1, “ANTI-SEZ6 ANTIBODY DRUG CONJUGATES” (AbbVie Inc., priority 2022, published 2025)
# Columns and labels:
# Format in all cases: cell-based
# SCLC cell lines = experiment: SCLC cell viability assay, summary over the cell line panel; conditions: all SCLC cell lines tested, TOP1 inhibitor alone
# Description: (§1) SCLC cell lines NCI-H526 (“H526”), NCI-H524 (“H524”), NCI-H146 (“H146”), NCI-H1963 (“H1963”) and SW-1271 were obtained from the American Type Culture Collection (ATCC). COR-L95 cells were obtained from Millipore Sigma (#96020733). SBC-5 cells were obtained from the Japanese Collection of Research Bioresources Cell Bank (JCRB).
# SCLC cell lines (shown in Table 2, column 1) were plated in white 384-well plates (Corning® 3765) at 1,000-2,000 cells/30 μl RPMI-1640 base media containing 10% heat-inactivated FBS (fetal bovine serum). Cell plates were incubated overnight at 37° C. in 5% CO2. Using a Tecan D300e Digital Dispenser, a dose response using a stock concentration of ADC or solution containing Example 1G and DMSO (dimethyl sulfoxide) was applied to the cells on day 0 and incubated for an additional 10 days (ADCs) or 3 days (Example 1G) at 37°° C. in 5% CO2. Samples were run in duplicate. Cell viability was assessed with the CellTiter-Glo™ Luminescent Cell Viability Assay (Promega, #G7570) according to the manufacturer's instructions, with the exception that the plates were shaken for 30 minutes prior to reading. Luminescence was read on the BioTek Synergy Neo2, and data was analyzed using GraphPad Prism software. […]
# SBC-5 = experiment: SCLC cell viability assay (CellTiter-Glo), SBC-5; conditions: Homo sapiens, 72 h; SBC-5, 3 days; read-out: IC50, 50% cell growth inhibition
# Description: as §1
# (§2) SCLC cell lines (shown in Table 2, column 1) were plated in white 384-well plates (Corning® 3765) at 1,000-2,000 cells/30 μl RPMI-1640 base media containing 10% heat-inactivated FBS (fetal bovine serum). Cell plates were incubated overnight at 37° C. in 5% CO2. Using a Tecan D300e Digital Dispenser, a dose response using a stock concentration of ADC or solution containing Example 1G and DMSO (dimethyl sulfoxide) was applied to the cells on day 0 and incubated for an additional 10 days (ADCs) or 3 days (Example 1G) at 37°° C. in 5% CO2. Samples were run in duplicate. Cell viability was assessed with the CellTiter-Glo™ Luminescent Cell Viability Assay (Promega, #G7570) according to the manufacturer's instructions, with the exception that the plates were shaken for 30 minutes prior to reading. Luminescence was read on the BioTek Synergy Neo2, and data was analyzed using GraphPad Prism software.
# [1] = system: Calu-6 cells (lung adenocarcinoma); experiment: Cell proliferation (CellTiter-Glo luminescence), Calu-6; conditions: Homo sapiens, Calu-6, read-out: EC50, TOP1i compound potency, Calu-6
# Description: The effect of TOP1i drugs on cell viability was assessed by monitoring ATP presence for metabolically active cells. Proliferation of Calu-6 cells (lung adenocarcinoma) and A375 cells (malignant melanoma) were quantified using CellTiter-Glo® luminescence.
# NCI-H524 = experiment: SCLC cell viability assay (CellTiter-Glo), NCI-H524; conditions: Homo sapiens, 72 h; NCI-H524, 3 days; read-out: IC50, 50% cell growth inhibition
# Description: as §1, §2
# NCI-H1963 = experiment: SCLC cell viability assay (CellTiter-Glo), NCI-H1963; conditions: Homo sapiens, 72 h; NCI-H1963, 3 days; read-out: IC50, 50% cell growth inhibition
# Description: as §1, §2
# [2] = system: A375 cells (malignant melanoma); experiment: Cell proliferation (CellTiter-Glo luminescence), A375; conditions: Homo sapiens, A-375, read-out: EC50, TOP1i compound potency, A375
# From the text: Proliferation of Calu-6 cells (lung adenocarcinoma) and A375 cells (malignant melanoma) were quantified using CellTiter-Glo® luminescence.
# NCI-H146 = experiment: SCLC cell viability assay (CellTiter-Glo), NCI-H146; conditions: Homo sapiens, 72 h; NCI-H146, 3 days; read-out: IC50, 50% cell growth inhibition
# Description: as §1, §2
# COR-L95 = experiment: SCLC cell viability assay (CellTiter-Glo), COR-L95; conditions: 72 h; COR-L95, 3 days; read-out: IC50, 50% cell growth inhibition
# Description: as §1, §2
# SW-1271 = experiment: SCLC cell viability assay (CellTiter-Glo), SW-1271; conditions: SW1271, 72 h; SW-1271, 3 days; read-out: IC50, 50% cell growth inhibition
# Description: as §1, §2
# NCI-H526 = experiment: SCLC cell viability assay (CellTiter-Glo), NCI-H526; conditions: Homo sapiens, 72 h; NCI-H526, 3 days; read-out: IC50, 50% cell growth inhibition
# Description: as §1, §2
structure (smiles),measurement,setting,value
"CC[C@@]1(O)C(=O)OCc2c1cc1n(c2=O)Cc2c-1nc1cc3c(cc1c2C12CC(N)(C1)C2)OCO3 [Example 1G, (7S)-14-(3-aminobicyclo[1.1.1]pentan-1-yl)-7-ethyl-7-hydroxy-2H,10H-[1,3]dioxolo[4,5-g]pyrano[3′,4′:6,7]indolizino[1,2-b]quinoline-8,11(7H,13H)-dione]",IC50 in all cell lines,SCLC cell lines,sub-to low-nM
same,IC50,SBC-5,1.26 nM
same,EC50,[1],0.57 nM
same,IC50,NCI-H524,1.68 nM
same,IC50,NCI-H1963,6.28 nM
same,EC50,[2],0.5 nM
same,IC50,NCI-H146,21.6 nM
same,IC50,COR-L95,5.71 nM
same,IC50,SW-1271,2.49 nM
same,IC50,NCI-H526,0.2 nM
